In publication PMC8198214, “Synthesis and Biological Evaluation of Spirocyclic Chromane Derivatives as a Potential Treatment of Prostate Cancer” (Molecules, 2021):
Read-outs that look alike come from different tables or passages of the source.

What was measured:
22Rv1 cells = test: 22Rv1 cell viability (CCK-8) antiproliferation assay; type: cell-based, human; settings: for IC50: Homo sapiens, Table 2, 22Rv1 cells, means of two independent experiments (n = 2)
Method: The 22Rv1 prostate cancer cell line in this study was purchased from KeyGEN Biotech Co. Ltd. (Nanjing, Jiangsu, China ). The cells were cultured in RPMI 1640 medium and maintained at 37 °C in a 5% CO2 incubator. For the cell viability assay, the cell slurry was diluted to required volume at a density of 80,000 cells/mL. Then, 100 μL the cell slurry was seeded in each well of the 96-well plate. The cells were incubated for 72 h at 37 °C, 5% CO2 under humidified condition. The reference and test compounds solution (200×) were prepared with DMSO and were diluted from 200× to 1× with culture medium (RPMI 1640 medium without phenol red and containing 10% fetal calf serum, penicillin (100U/mL), streptomycin (100 μg/mL) and 0.1 nM DHT). The previous culture medium was removed and 200 μL/well of the compound solution (1×) was added to assay plate (final conc: 1×). Then the cells were incubated at 37 °C, 5% CO2 under humidified conditions. 5 Days later, the CCK-8 assay reagent was equilibrated at room temperature for 30 min prior to use. CCK-8 was mixed with fresh medium at a ratio of 1:10 and 100 μL of the diluted CCK8 reagent was added to each well and the plates were incubated for 4.5 h at 37 °C. Finally, absorbance value (OD value) was read on plate reader. GraphPad Prism v5.0 software was used to process data for IC50.

[1] = Pharmacokinetics in male Balb/C mice (IV and PO); type: in vivo; settings: mouse, plasma; for clearance: n = 3, read-out: CL (clearance) (converted); for Vd: n = 3, read-out: V ss (0–24 h) (volume of distribution at steady state); for bioavailability: PO. 10 mg/kg vs IV. 1 mg/kg, n = 3, read-out: F (oral bioavailability); for Cmax: n = 3, Table 3, read-out: Cmax (maximum concentration observed)
Method: Pharmacokinetic experiments of test compounds were performed in male Balb/C mice similarly to our previous work. The mice were randomly assigned to two groups and were administrated the test compound orally and intravenously, respectively. The test compounds were prepared into 0.5 mg/mL oral solution with 10%PG, 10% ethanol, 10% solutol and 70% normal saline, or 0.1 mg/mL injection solution with 2% PG, 2% ethanol, 2% solutol and 94% normal saline. After intravenous or oral administration, blood was collected from the orbital venous plexus into heparinized EP tube (0.6 mL) at 5, 15, 30 min, 1, 2, 6, 10, and 24 h, temporarily placed on crushed ice. Certain processing was performed on blood samples and testing samples were sent to LC-MS/MS for analysis.

[2] = IV. 1 mg/kg, n = 3, read-out: AUC(0–24h)
[3] = IV. 1 mg/kg, n = 3, read-out: T1/2 (half-life) (converted)
[4] = PO. 10 mg/kg, n = 3, Table 3, read-out: AUC (0–24 h)
[5] = PO. 10 mg/kg, n = 3, Table 3, read-out: T1/2 (converted)

| IC50 (22Rv1 cells) [nM] | AUC(0-t) [1, 2] [ng·h/mL] | clearance ([1]; IV. 1 mg/kg) [mL/min/kg] | half-life [1, 3] [h] | Vd ([1]; IV. 1 mg/kg) [L/kg] | bioavailability [1] [%] | AUC(0-t) [1, 4] [ng·h/mL] | Cmax ([1]; PO. 10 mg/kg) [ng/mL] | half-life [1, 5] [h] | Compound | fold more potency than A-485 (22Rv1 cells; 22Rv1 cell antiproliferation) [fold] |
| --- | --- | --- | --- | --- | --- | --- | --- | --- | --- | --- |
| 153 | 766 ± 71.2 | 18.3 | 17 ± 4.9 | 13.2 ± 4.2 | 21.6 ± 3.8 | 1660 ± 294 | 878 ± 94.3 | 23.9 ± 3.6 | CNC(=O)Cn1cc(-c2ccc3c(c2)CCC32OC(=O)N(CC(=O)N(Cc3ccc(F)cc3)[C@H]3CCc4cccnc43)C2=O)cn1 (stereo partly drawn) [B8, N-((S)-6,7-Dihydro-5H-cyclopenta[b]pyridin-7-yl)-N-(4-fluorobenzyl)-2-(5-(1-(2-(methylamino)-2-oxoethyl)-1H-pyrazol-4-yl)-2′,4′-dioxo-2,3-dihydrospiro[indene-1,5′-oxazolidin]-3′-yl)acetamide] |  |
| 96 | 536 ± 18.1 | 30 | 0.5 | 1 ± 0.1 | 33.2 ± 3 | 1780 ± 158 | 759 ± 76.5 | 1.6 ± 0.3 | CNC(=O)Cn1cc(-c2ccc3c(c2)CCC32OC(=O)N(CC(=O)N(Cc3ccc(F)cc3)[C@H]3CCOc4ccccc43)C2=O)cn1 (stereo partly drawn) [B16, N-((S)-chroman-4-yl)-N-(4-fluorobenzyl)-2-(5-(1-(2-(methylamino)-2-oxoethyl)-1H-pyrazol-4-yl)-2′,4′-dioxo-2,3-dihydrospiro[indene-1,5′-oxazolidin]-3′-yl) acetamide] | 2 |
